Experimental data as given in ChEMBL document CHEMBL4732257, “The optimization and characterization of functionalized sulfonamides derived from sulfaphenazole against Mycobacterium tuberculosis with reduced CYP 2C9 inhibition” (Bioorg Med Chem Lett, 2021).
Converted amounts (≈) assume the structure as drawn.

These compounds were tested on Mycobacterium tuberculosis (assay: Antitubercular activity against isoniazid,streptomycin,rifampicin,ethambutol,para-aminosalicylate,prothionamide,capreomycin-resistant Mycobacterium tuberculosis 14862 assessed as bacterial growth inhibition).
Format: functional

SMILES	MIC [µg/mL]
COc1ccc(-n2nccc2NS(=O)(=O)c2ccc(N)cc2)cc1	10.6 (≈ 30.8 µM)
Nc1ccc(S(=O)(=O)Nc2ccnn2-c2ccc(F)cc2)cc1	10.9 (≈ 32.7 µM)
NNC(=O)c1ccncc1 [ISONIAZID]	> 10
Nc1ccc(S(=O)(=O)Nc2ccnn2-c2ccccc2)cc1 [SULFAPHENAZOLE]	12.6 (≈ 40 µM)
Cc1ccc(-n2nccc2NS(=O)(=O)c2ccc(N)cc2)cc1	11.9 (≈ 36.3 µM)
